Converted amounts (≈) assume the structure as drawn. “And” between values parts separate entries of the source, which are not always exact repeats. Equal entries are not always repeated.
Experiments:
Experiment in all cases: ≥ marks a high value that may be exact or a test limit, other limits are often not marked, values filed in µg/mL are converted to µM
[1] = test system: Bifidobacterium longum subsp. infantis
Escherichia coli = test system: Escherichia coli
Staphylococcus aureus = test system: Staphylococcus aureus
Bacillus cereus = test system: Bacillus cereus
Leuconostoc lactis = test system: Leuconostoc lactis
Listeria innocua = test system: Listeria innocua
Micrococcus luteus = test system: Micrococcus luteus
Pasteurella multocida = test system: Pasteurella multocida
[2] = test system: Staphylococcus epidermidis
Streptococcus uberis = test system: Streptococcus uberis
[3] = test system: Acinetobacter baumannii 97830
[4] = test system: Acinetobacter baumannii 9931
[5] = test system: Acinetobacter baumannii ATCC 19606
[6] = test system: Bacillus subtilis ATCC 23857
Escherichia coli 780 = test system: Escherichia coli 780
Escherichia coli 804 = test system: Escherichia coli 804
[7] = test system: Klebsiella pneumoniae ATCC 700603
[8] = test system: Pseudomonas aeruginosa 50
[9] = test system: Pseudomonas aeruginosa 73
[10] = test system: Pseudomonas aeruginosa ATCC 27853
[11] = test system: Pseudomonas aeruginosa ATCC 9027
[12] = test system: Staphylococcus aureus 113
Staphylococcus aureus 75 = test system: Staphylococcus aureus 75
[13] = test system: Staphylococcus aureus ATCC 29213
[14] = test system: Staphylococcus epidermidis ATCC 12228
[15] = test system: Acinetobacter baumannii ATCC 7978
[16] = test system: Enterococcus faecium E007
[17] = test system: Klebsiella pneumoniae WGLW2
[18] = test system: Staphylococcus aureus ATCC 29231
[19] = test system: Staphylococcus aureus MW2
[20] = test system: Candida albicans ATCC 10231
[21] = test system: Cryptococcus neoformans ATCC 32264
[22] = test system: Escherichia coli ATCC 25922
[23] = test system: Salmonella enterica subsp. enterica serovar Enteritidis
Salmonella sp. = test system: Salmonella sp.
[24] = test system: Staphylococcus aureus ATCC 43300
Yersinia enterocolitica = test system: Yersinia enterocolitica
[25] = test system: Candida albicans TIMM 0144
[26] = test system: Staphylococcus aureus JCM 2151
[27] = test system: Trichophyton mentagrophytes TIMM 1189
[28] = test system: Bacillus subtilis CCT 2471
Candida albicans = test system: Candida albicans
[29] = test system: Enterobacter cloacae ATCC 23355
[30] = test system: Escherichia coli CCT 1371
[31] = test system: Klebsiella pneumoniae ATCC 13883
[32] = test system: Staphylococcus aureus ATCC 6535
[33] = test system: Staphylococcus saprophyticus
Fusarium graminearum = test system: Fusarium graminearum
[34] = test system: Yersinia enterocolitica ATCC 23715

## NCCCC[C@H](NC(=O)CNC(=O)[C@H](Cc1ccccc1)NC(=O)[C@H](CCCCN)NC(=O)[C@@H](N)CCC(=O)O)C(=O)N[C@@H](CC(=O)O)C(=O)N[C@@H](CCCCN)C(=O)N[C@@H](CO)C(=O)N1CCC[C@H]1C(=O)N[C@@H](CCCCN)C(=O)N[C@@H](Cc1ccccc1)C(=O)N[C@@H](CCC(N)=O)C(=O)O [EKFGKDKSPKFQ]
[1]
  MIC: ≥ 2090 µM
Escherichia coli
  MIC: 2090 µM (≈ 3000 µg/mL)
Staphylococcus aureus
  MIC: 2090 µM (≈ 3000 µg/mL)

## CC[C@H](C)[C@H](NC(=O)[C@H](CO)NC(=O)CNC(=O)[C@@H](NC(=O)[C@H](CC(C)C)NC(=O)CN)[C@@H](C)CC)C(=O)NCC(=O)N[C@@H](CCCCN)C(=O)N[C@@H](C)C(=O)N[C@@H](CC(C)C)C(=O)NCC(=O)NCC(=O)N[C@@H](CC(C)C)C(=O)N[C@@H](CC(C)C)C(=O)N[C@H](C(=O)N[C@@H](CC(=O)O)C(=O)N[C@H](C(=O)N[C@@H](CC(C)C)C(=O)N[C@@H](CCCCN)C(=O)N1CCC[C@H]1C(=O)N[C@@H](CCCCN)C(=O)N[C@@H](CC(C)C)C(=O)O)C(C)C)C(C)C [GLIGSIGKALGGLLVDVLKPKL]
Bacillus cereus
  MIC: ≥ 46.3 µM
Escherichia coli
  MIC: > 46.3 µM
Leuconostoc lactis
  MIC: 23.1 µM (≈ 50 µg/mL)
Listeria innocua
  MIC: ≥ 46.3 µM
Micrococcus luteus
  MIC: ≥ 46.3 µM
Pasteurella multocida
  MIC: ≥ 46.3 µM
Staphylococcus aureus
  MIC: > 46.3 µM
[2]
  MIC: ≥ 46.3 µM
Streptococcus uberis
  MIC: ≥ 46.3 µM

## NCC(=O)N[C@@H](Cc1c[nH]c2ccccc12)C(=O)N[C@@H](CCCN=C(N)N)C(=O)N[C@@H](Cc1c[nH]c2ccccc12)C(=O)N[C@@H](Cc1c[nH]c2ccccc12)C(=O)N[C@@H](Cc1c[nH]c2ccccc12)C(=O)N[C@@H](CCCN=C(N)N)C(=O)N[C@@H](Cc1c[nH]c2ccccc12)C(=O)NCC(N)=O [GWRWWWRWG]
[3]
  MIC: 16 µM (≈ 22 µg/mL)
[4]
  MIC: 8 µM (≈ 11 µg/mL)
[5]
  MIC: 32 µM (≈ 44 µg/mL)
[6]
  MIC: 4 µM (≈ 5.5 µg/mL)
Escherichia coli 780
  MIC: 8 µM (≈ 11 µg/mL)
Escherichia coli 804
  MIC: 16 µM (≈ 22 µg/mL)
[7]
  MIC: 32 µM (≈ 44 µg/mL)
[8]
  MIC: ≥ 32 µM
[9]
  MIC: ≥ 32 µM
[10]
  MIC: 64 µM (≈ 88 µg/mL)
[11]
  MIC: 64 µM (≈ 88 µg/mL)
[12]
  MIC: 8 µM (≈ 11 µg/mL)
Staphylococcus aureus 75
  MIC: 8 µM (≈ 11 µg/mL)
[13]
  MIC: 8 µM (≈ 11 µg/mL)
[14]
  MIC: 8 µM (≈ 11 µg/mL)

## CC[C@H](C)[C@H](NC(=O)[C@H](CCCCN)NC(=O)[C@H](CCCCN)NC(=O)[C@H](CC(C)C)NC(=O)[C@@H](NC(=O)[C@H](CCCCN)NC(=O)[C@H](Cc1c[nH]c2ccccc12)NC(=O)[C@@H](N)CC(C)C)[C@@H](C)CC)C(=O)N[C@@H](Cc1c[nH]c2ccccc12)C(=O)N[C@@H](CCCN=C(N)N)C(=O)N[C@H](C(=O)N[C@@H](CC(C)C)C(=O)N[C@@H](CCCCN)C(=O)N[C@@H](CC(N)=O)C(=O)N[C@@H](Cc1c[nH]c2ccccc12)C(=O)N[C@@H](CCCN=C(N)N)C(=O)O)C(C)C [LWKILKKIWRVLKNWR]
[15]
  MIC: ≥ 58.7 µM
[16]
  MIC: ≥ 58.7 µM
[17]
  MIC: 29.4 µM (≈ 64 µg/mL)
[18]
  MIC: 14.7 µM (≈ 32 µg/mL)
[19]
  MIC: 14.7 µM (≈ 32 µg/mL)

## CC[C@H](C)[C@H](NC(=O)[C@H](CCC(N)=O)NC(=O)[C@@H](N)CCCN=C(N)N)C(=O)N[C@@H](CCCN=C(N)N)C(=O)N[C@@H](CCCN=C(N)N)C(=O)N[C@@H](Cc1c[nH]c2ccccc12)C(=O)N[C@@H](Cc1c[nH]c2ccccc12)C(=O)N[C@@H](CCC(N)=O)C(=O)N[C@@H](Cc1c[nH]c2ccccc12)C(N)=O [RQIRRWWQW]
[20]
  MIC: 50 µM (≈ 70.7 µg/mL)
[21]
  MIC: 25 µM (≈ 35.3 µg/mL)
[22]
  MIC: > 50 µM
Escherichia coli
  MIC: 44.7 µM (≈ 63.2 µg/mL)
[10]
  MIC: > 50 µM
[23]
  MIC: ≥ 50 µM
Salmonella sp.
  MIC: 30 µM (≈ 42.4 µg/mL)
[13]
  MIC: > 50 µM
[24]
  MIC: > 50 µM
Yersinia enterocolitica
  MIC: ≥ 50 µM

## CC(=O)N[C@@H](CCCN=C(N)N)C(=O)N[C@@H](CCCN=C(N)N)C(=O)N[C@@H](Cc1c[nH]c2ccccc12)C(=O)N[C@@H](Cc1c[nH]c2ccccc12)C(=O)N[C@@H](CS)C(=O)N[C@@H](CCCN=C(N)N)C(N)=O [RRWWCR]
[25]
  MIC: ≥ 52 µM
[26]
  MIC: 26 µM and 12.5 µM
[27]
  MIC: 6.24 µM (≈ 6.26 µg/mL)

## CC[C@H](C)[C@H](NC(=O)[C@H](CO)NC(=O)[C@@H](NC(=O)[C@H](CCCCN)NC(=O)[C@H](Cc1ccccc1)NC(=O)[C@@H]1CCCN1C(=O)[C@@H](N)[C@@H](C)O)[C@@H](C)CC)C(=O)N[C@@H](Cc1cnc[nH]1)C(=O)N[C@@H](CC(C)C)C(N)=O [TPFKISIHL]
[28]
  MIC: 28.4 µM (≈ 30 µg/mL)
Candida albicans
  MIC: 2.37 µM (≈ 2.5 µg/mL)
[29]
  MIC: 14.2 µM (≈ 15 µg/mL)
[30]
  MIC: 14.2 µM (≈ 15 µg/mL)
[31]
  MIC: 14.2 µM (≈ 15 µg/mL)
[10]
  MIC: 14.2 µM (≈ 15 µg/mL)
[32]
  MIC: 14.2 µM (≈ 15 µg/mL)
[33]
  MIC: 9.48 µM (≈ 9.99 µg/mL)

## NC(=O)C[C@H](NC(=O)CNC(=O)[C@H](Cc1ccccc1)NC(=O)[C@@H](N)Cc1c[nH]c2ccccc12)C(=O)N[C@@H](CS)C(=O)NCC(=O)N[C@@H](CC(N)=O)C(=O)N1CCC[C@H]1C(=O)N[C@@H](CCCN=C(N)N)C(=O)N[C@@H](Cc1cnc[nH]1)C(=O)N[C@@H](CS)C(=O)NCC(=O)O [WFGNCGNPRHCG]
Fusarium graminearum
  MIC: ≥ 70 µM

## CC[C@H](C)[C@H](NC(=O)[C@@H]1CCCN1C(=O)[C@H](CC(N)=O)NC(=O)[C@H](Cc1cnc[nH]1)NC(=O)[C@@H](NC(=O)[C@@H]1CCCN1C(=O)[C@H](C)NC(=O)[C@H](CC(C)C)NC(=O)[C@@H]1CCCN1C(=O)[C@H](CCC(N)=O)NC(=O)[C@@H](NC(=O)[C@@H](NC(=O)[C@@H]1CCCN1C(=O)[C@@H](N)Cc1ccc(O)cc1)C(C)C)[C@@H](C)O)C(C)C)C(=O)N[C@@H](CO)C(=O)O [YPVTQPLAPVHNPIS]
[22]
  MIC: 1.91 µM (≈ 3.13 µg/mL)
[34]
  MIC: 3.83 µM (≈ 6.25 µg/mL)

Reference: DBAASP
